According to ChEMBL document CHEMBL1123698, “alpha-Methylproline-containing renin inhibitory peptides: in vivo evaluation in an anesthetized, ganglion-blocked, hog renin infused rat model” (J Med Chem, 1987):
Square brackets hold non-standard residues; d marks the D form. Peptide text beside a SMILES is read from it. * marks the point of attachment. Sta = CC(C)C[C@H](N)[C@@H](O)CC(=O)O; NHCH2(2-pyridyl) = c1ccc(CN*)nc1; αMeP = C[C@@]1(C(=O)O)CCCN1; Boc = CC(C)(C)OC(=O)*

Legend:
Renin = target: T1, Renin (Homo sapiens, UniProt P00797); assay: In vitro inhibition against human plasma renin.; type: cell-free
T1 sequence (P00797 whole entry): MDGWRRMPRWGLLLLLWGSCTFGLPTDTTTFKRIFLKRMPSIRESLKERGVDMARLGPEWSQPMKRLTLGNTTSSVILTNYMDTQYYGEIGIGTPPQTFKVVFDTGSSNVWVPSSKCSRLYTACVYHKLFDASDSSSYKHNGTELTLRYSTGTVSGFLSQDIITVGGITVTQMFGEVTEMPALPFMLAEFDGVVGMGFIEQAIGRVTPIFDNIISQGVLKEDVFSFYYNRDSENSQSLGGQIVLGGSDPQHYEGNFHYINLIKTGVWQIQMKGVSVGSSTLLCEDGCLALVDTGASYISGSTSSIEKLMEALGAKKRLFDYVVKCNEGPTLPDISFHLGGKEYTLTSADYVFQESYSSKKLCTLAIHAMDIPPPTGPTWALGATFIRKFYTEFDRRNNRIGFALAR

Renin (Sus scrofa) = assay: In vitro inhibition against hog renin.

IC50 (Renin) [nM]	IC50 (Renin (Sus scrofa)) [nM]	SMILES
36	–	CC[C@H](C)[C@H](NC(=O)C[C@H](O)[C@H](CC(C)C)NC(=O)[C@H](Cc1ccccc1)NC(=O)[C@H](Cc1ccccc1)NC(=O)[C@]1(C)CCCN1C(=O)OC(C)(C)C)C(=O)NCc1ccccn1 (Boc-[αMeP]FF[Sta]I-{NHCH2(2-pyridyl)})
43	–	CC[C@H](C)[C@H](NC(=O)[C@@H](NC[C@H](CC(C)C)NC(=O)[C@H](Cc1c[nH]cn1)NC(=O)[C@H](Cc1ccccc1)NC(=O)[C@]1(C)CCCN1C(=O)OC(C)(C)C)C(C)C)C(=O)NCc1ccccn1
–	40	CC[C@H](C)[C@H](NC(=O)[C@@H](NC[C@H](O)[C@H](CC(C)C)NC(=O)[C@H](Cc1c[nH]cn1)N(C)C(=O)[C@H](Cc1ccccc1)NC(=O)[C@@H]1CCCN1C(=O)OC(C)(C)C)C(C)C)C(=O)NCc1ccccn1
3.5	–	CC[C@H](C)[C@H](NC(=O)C[C@H](O)[C@H](CC(C)C)NC(=O)[C@H](Cc1c[nH]cn1)NC(=O)[C@H](Cc1ccccc1)NC(=O)[C@]1(C)CCCN1C(=O)OC(C)(C)C)C(=O)NCc1ccccn1 (Boc-[αMeP]FH[Sta]I-{NHCH2(2-pyridyl)})
